Results reported in patent US4487776A, “Azolyl-phenoxy-tetrahydrofuran-2-ylidene-methanes, a process for their preparation, and antimicrobial agents which contain these substances” (Bayer Aktiengesellschaft, priority 1982, dated 1984).
≈ marks a conversion by molar mass, not a printed value.

Columns and labels:
Trichophyton mentagr. = experiment: Antimycotic in vitro activity, series dilution test (MIC); assay type: cell-based, Trichophyton mentagrophytes; conditions: 5×10^4 germs/ml, Sabouraud's milieu d'épreuve, 20° C., 96 hours, read-out: MIC values in γ/ml of nutrient medium, Trichophyton mentagr.
Description: (§1) Antimycotic in vitro activity Description of the experiment: The in vitro tests were carried out in a series dilution test with germ inocula of an average of 5×10^4 germs/ml of substrate. The nutrient medium was (a) for dermatophytes and moulds: Sabouraud's milieu d'/e/ preuve and The incubation temperature was 20° C. and the duration of incubation was 24 to 96 hours, in the case of yeasts, and 96 hours in the case of dermatophytes and moulds.

Candida albicans = experiment: as above; assay type: cell-based; conditions: 5×10^4 germs/ml, meat extract/glucose broth, 20° C., 24 to 96 hours, read-out: MIC values in γ/ml of nutrient medium, Candida albicans
Description: as §1, with “(b)” for “(a)”, “yeasts: meat extract/glucose broth.” for “dermatophytes and moulds: Sabouraud's milieu d'/e/ preuve and”

Torulopsis glabrata = experiment: as above; assay type: cell-based; conditions: Nakaseomyces glabratus, 5×10^4 germs/ml, meat extract/glucose broth, 20° C., 24 to 96 hours, read-out: MIC values in γ/ml of nutrient medium, Torulopsis glabrata
Description: as §1, with “(b)” for “(a)”, “yeasts: meat extract/glucose broth.” for “dermatophytes and moulds: Sabouraud's milieu d'/e/ preuve and”

Aspergillus fumig. = experiment: as above; assay type: cell-based, Aspergillus fumigatus; conditions: 5×10^4 germs/ml, Sabouraud's milieu d'épreuve, 20° C., 96 hours, read-out: MIC values in γ/ml of nutrient medium, Aspergillus fumig.
Description: as §1

Microsporum canis = experiment: as above; assay type: cell-based; conditions: 5×10^4 germs/ml, Sabouraud's milieu d'épreuve, 20° C., 96 hours, read-out: MIC values in γ/ml of nutrient medium, Microsporum canis
Description: as §1

[1] = test system: dermatophytes and moulds, yeasts; experiment: Antimycotic in vitro activity, overall comparison with known compounds; assay type: cell-based; conditions: in vitro series dilution test
Description: Antimycotic in vitro activity
Description of the experiment:
The in vitro tests were carried out in a series dilution test with germ inocula of an average of 5×10^4 germs/ml of substrate. The nutrient medium was
(a) for dermatophytes and moulds:
Sabouraud's milieu d'/e/ preuve and
meat extract/glucose broth.
The incubation temperature was 20° C. and the duration of incubation was 24 to 96 hours, in the case of yeasts, and 96 hours in the case of dermatophytes and moulds.

Structure (SMILES)	MIC (Trichophyton mentagr.)	MIC (Candida albicans)	MIC (Torulopsis glabrata)	MIC (Aspergillus fumig.)	MIC (Microsporum canis)	antimycotic action compared with compounds (A), (B), (C) and (D) [1]
CC(C)(C)C(O)C(=Cn1ccnc1)Oc1ccc(F)cc1 (centres unmarked) [(A), reference compound]	1 µg/mL (≈ 3.44 µM)	32 µg/mL (≈ 110 µM)	64 µg/mL (≈ 220 µM)	> 64 µg/mL	64 µg/mL (≈ 220 µM)	
CC(C)(C)C(O)C(=Cn1ccnc1)Oc1ccc(-c2ccccc2)cc1 (centres unmarked) [(B), reference compound]	< 1 µg/mL	32 µg/mL (≈ 91.8 µM)	> 64 µg/mL	> 64 µg/mL	32 µg/mL (≈ 91.8 µM)	
CC(C)(C)C(O)C(=Cn1ccnc1)Oc1ccc(Cl)cc1Cl (centres unmarked) [(C), reference compound]	< 1 µg/mL	16 µg/mL (≈ 46.9 µM)	16 µg/mL (≈ 46.9 µM)	> 64 µg/mL	32 µg/mL (≈ 93.8 µM)	
CC(C)(C)C(O)C(=Cn1cncn1)Oc1ccc(Cl)cc1Cl (centres unmarked) [(D), reference compound]	< 1 µg/mL	32 µg/mL (≈ 93.5 µM)	32 µg/mL (≈ 93.5 µM)	64 µg/mL (≈ 187 µM)	64 µg/mL (≈ 187 µM)	
CC1(C)CCOC1=C(Oc1ccc(Cl)cc1)n1ccnc1 [Example 1, (4-chlorophenoxy)-(imidazol-1-yl)-3,3-dimethyltetrahydrofuran-2-ylidene-methane]	< 1 µg/mL	8 µg/mL (≈ 26.2 µM)	2 µg/mL (≈ 6.56 µM)	< 1 µg/mL	< 1 µg/mL	better antimycotic action
CC1(C)CCOC1=C(Oc1ccc(F)cc1)n1ccnc1 [Example 2]	< 1 µg/mL	< 1 µg/mL	2 µg/mL (≈ 6.94 µM)	2 µg/mL (≈ 6.94 µM)	< 1 µg/mL	better antimycotic action
CC1(C)CCOC1=C(Oc1ccc(Cl)cc1Cl)n1ccnc1 [Example 3]	< 1 µg/mL	< 1 µg/mL	< 1 µg/mL	< 1 µg/mL	< 1 µg/mL	better antimycotic action
CC1(C)CCOC1=C(Oc1ccc(-c2ccccc2)cc1)n1ccnc1 [Example 7]	< 1 µg/mL	< 1 µg/mL	< 1 µg/mL	< 1 µg/mL	< 1 µg/mL	better antimycotic action
CC1(C)CCOC1=C(Oc1ccc(Cl)cc1)n1cncn1 [Example 11]	< 1 µg/mL	4 µg/mL (≈ 13.1 µM)	16 µg/mL (≈ 52.3 µM)	> 64 µg/mL	16 µg/mL (≈ 52.3 µM)	better antimycotic action
